In US11731976B2, “3-(ethoxydifluoromethyl)-6-(5-fluoro-6-(2,2,2-trifluoroethoxy)pyridin-3-yl)-[1,2,4]triazolo[4,3-a]pyridine as an ion channel modulator” (Praxis Precision Medicines, Inc., priority 2018, dated 2023):

Experiments:
[1] = biological target: T1, human NaV1.6 (hNaV1.6) (Homo sapiens, UniProt Q9UQD0); assay: Modulation of late sodium current (INaL), PatchXpress electrophysiology, HEK-293 cells expressing hNaV1.6; assay type: cell-based; conditions: HEK293, late current evoked by 300 nM ATX-II, read-out: NaV 1.6 Assay Data: percent inhibition of INaL at hNaV1.6
T1 construct: expressed in transfected cells; host or cells: HEK-293
T1 sequence (Q9UQD0 whole entry): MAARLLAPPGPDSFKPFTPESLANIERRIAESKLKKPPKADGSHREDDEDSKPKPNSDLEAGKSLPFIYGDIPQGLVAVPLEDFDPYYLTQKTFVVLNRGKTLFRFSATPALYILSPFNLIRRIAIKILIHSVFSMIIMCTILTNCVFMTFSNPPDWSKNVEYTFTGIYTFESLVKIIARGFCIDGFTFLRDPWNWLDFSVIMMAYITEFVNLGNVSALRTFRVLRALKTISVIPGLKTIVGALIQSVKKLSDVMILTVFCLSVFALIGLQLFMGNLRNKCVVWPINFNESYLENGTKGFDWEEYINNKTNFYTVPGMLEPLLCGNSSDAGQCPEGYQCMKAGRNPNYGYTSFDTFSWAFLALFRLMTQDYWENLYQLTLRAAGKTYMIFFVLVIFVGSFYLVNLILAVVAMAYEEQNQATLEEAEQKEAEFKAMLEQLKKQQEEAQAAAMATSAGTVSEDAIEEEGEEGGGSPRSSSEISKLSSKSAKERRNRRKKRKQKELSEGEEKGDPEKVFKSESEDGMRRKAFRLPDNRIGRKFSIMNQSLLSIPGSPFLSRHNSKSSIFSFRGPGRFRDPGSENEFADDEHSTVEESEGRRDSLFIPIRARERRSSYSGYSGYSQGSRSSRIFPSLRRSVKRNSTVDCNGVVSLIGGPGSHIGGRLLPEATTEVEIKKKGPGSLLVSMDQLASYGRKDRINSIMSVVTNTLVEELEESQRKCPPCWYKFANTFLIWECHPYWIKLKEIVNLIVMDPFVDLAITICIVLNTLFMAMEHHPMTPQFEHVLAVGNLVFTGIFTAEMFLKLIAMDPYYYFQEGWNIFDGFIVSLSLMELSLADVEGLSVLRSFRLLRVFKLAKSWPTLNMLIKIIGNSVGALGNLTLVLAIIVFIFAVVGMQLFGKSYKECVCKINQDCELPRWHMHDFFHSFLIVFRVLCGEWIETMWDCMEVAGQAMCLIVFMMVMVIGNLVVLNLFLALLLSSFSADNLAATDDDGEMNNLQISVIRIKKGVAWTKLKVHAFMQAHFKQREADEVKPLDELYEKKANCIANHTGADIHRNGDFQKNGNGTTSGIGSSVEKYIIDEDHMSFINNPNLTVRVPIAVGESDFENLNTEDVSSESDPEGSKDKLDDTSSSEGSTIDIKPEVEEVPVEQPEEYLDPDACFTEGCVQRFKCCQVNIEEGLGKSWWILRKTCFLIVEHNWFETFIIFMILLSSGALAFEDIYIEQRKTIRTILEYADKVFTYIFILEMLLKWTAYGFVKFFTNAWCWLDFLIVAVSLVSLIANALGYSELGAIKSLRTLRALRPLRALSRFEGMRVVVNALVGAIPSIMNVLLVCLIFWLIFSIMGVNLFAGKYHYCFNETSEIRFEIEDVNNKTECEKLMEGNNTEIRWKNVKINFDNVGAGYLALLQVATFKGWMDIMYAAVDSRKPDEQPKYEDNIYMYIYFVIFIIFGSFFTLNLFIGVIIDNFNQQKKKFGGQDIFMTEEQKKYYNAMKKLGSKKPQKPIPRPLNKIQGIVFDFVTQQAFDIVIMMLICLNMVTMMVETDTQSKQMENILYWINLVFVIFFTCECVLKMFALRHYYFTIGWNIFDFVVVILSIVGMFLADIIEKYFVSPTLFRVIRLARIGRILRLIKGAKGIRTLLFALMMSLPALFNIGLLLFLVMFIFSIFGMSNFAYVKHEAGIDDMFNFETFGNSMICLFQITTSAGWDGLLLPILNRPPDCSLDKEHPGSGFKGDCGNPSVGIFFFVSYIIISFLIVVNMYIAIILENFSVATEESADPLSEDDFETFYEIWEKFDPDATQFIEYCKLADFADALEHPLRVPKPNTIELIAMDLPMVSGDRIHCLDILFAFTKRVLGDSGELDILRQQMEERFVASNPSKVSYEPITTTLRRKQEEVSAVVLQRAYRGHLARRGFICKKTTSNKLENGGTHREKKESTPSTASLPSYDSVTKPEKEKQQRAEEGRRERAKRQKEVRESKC
Procedure, shortened: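 PatchXpress automated patch clamp on HEK-293 cells expressing recombinant hNaV1.6; late current enhanced with 300 nM ATX-II. INaL evoked by 200 ms steps to 0 mV from about −120 mV at 0.1 Hz, measured as mean amplitude over the final 20 ms. Percent steady-state inhibition versus control current.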

[2] = biological target: T2, hNaV1.6-R223G (Homo sapiens, UniProt Q9UQD0, R223G); assay: Voltage ramp activated sodium current (Ramp INa), PatchXpress, HEK-293; assay type: cell-based; conditions: HEK293; percent inhibition of enhanced ramp current at 1 μM; +600 mv/sec ramp from −100 mV to +20 mV
T2 construct: expressed in transfected cells; host or cells: HEK-293
T2 sequence (Q9UQD0 whole entry R223G): as the sequence (Q9UQD0 whole entry) above, with R223G counted along it
Procedure: (§1) Functional characterization of exemplary compounds to modulate INa expressed by various human isoforms and disease-causing mutant voltage-gated sodium channels was accomplished using the PatchXpress high throughput electrophysiology platform (Molecular Devices, Sunnyvale, Calif.). HEK-293 cells expressing a recombinant, human NaV1.X sodium channel (either hNaV1.6-WT, hNaV1.6-R223G, hNaV1.6-N984K, hNaV1.6-N1768D, hNaV1.1-WT, hNaV1.2-WT, hNaV1.5-WT, hNaV1.7-WT, or hNaV1.8-WT) were grown in DMEM/high-glucose Dulbecco's modified, 10% FBS, 2 mM sodium pyruvate, 10 mM HEPES and 400 μg/mL G418. Cells were grown to 50%-80% confluency prior to harvesting. Trypsinized cells were washed, allowed to recover for 1 hour and then resuspended in extracellular recording solution at a concentration of 1×10^6 cells/ml. The onboard liquid handling facility of the PatchXpress was used for dispensing cells and applying test compounds. INa amplitude and stability were determined by analyzing the peak current amplitude.
(§2) The Nav1.6 mutant channels (hNaV1.6-R223G, hNaV1.6-N984K, hNaV1.6-N1768D) express an enhanced sodium current in response to a ramp voltage depolarization when compared to the wild-type hNaV1.6-WT. This enhanced, depolarizing ramp current is thought to contribute to enhanced neuronal excitability. The degree of block with exemplary compounds (e.g., as described herein) was measured using a +600 mv/sec voltage ramp from −100 mV to +20 mV. The ramp current was defined as the area of the current measured between −55 mV and +15 mV. Following steady state block with exemplary compounds (e.g., as described herein) at 1 μM, a Na^+ free solution containing an impermeant cation (e.g., Choline or NMDG) was added for determination of the baseline current level for offline subtraction. Percent inhibition of enhanced ramp current was calculated as (compound−baseline)/(control−baseline)*100, where control represents the ramp current recorded in the absence of compound. In this table, “A” indicates inhibition between less than 0% to 50% and “B” indicates inhibition of greater than 50% and N/A indicates the compound was not tested.

[3] = biological target: T3, hNaV1.6-N984K (Homo sapiens, UniProt Q9UQD0, N984K); assay: as above; assay type: cell-based; conditions: HEK293; percent inhibition of enhanced ramp current at 1 μM; +600 mv/sec ramp from −100 mV to +20 mV
T3 construct: expressed in transfected cells; host or cells: HEK-293
T3 sequence (Q9UQD0 whole entry N984K): as the sequence (Q9UQD0 whole entry) above, with N984K counted along it
Procedure: as §1, §2

[4] = biological target: T4, hNaV1.6-N1768D (Homo sapiens, UniProt Q9UQD0, N1768D); assay: as above; assay type: cell-based; conditions: HEK293; percent inhibition of enhanced ramp current at 1 μM; +600 mv/sec ramp from −100 mV to +20 mV
T4 construct: expressed in transfected cells; host or cells: HEK-293
T4 sequence (Q9UQD0 whole entry N1768D): as the sequence (Q9UQD0 whole entry) above, with N1768D counted along it
Procedure: as §1, §2

[5] = biological target: T5, hNaV1.2-WT (Homo sapiens, UniProt Q99250); assay: Voltage step activated sodium current (Peak INa), PatchXpress, HEK-293; assay type: cell-based; conditions: percent inhibition measured at 1 μM; step to 0 mV from half-inactivation holding potential
T5 construct: expressed in transfected cells; host or cells: HEK-293
Procedure: as §1
(§3) Peak INa was evoked by depolarizing steps to 0 mV for 20 ms from a holding potential which evoked half-inactivation (e.g., −60 mV) at a frequency of 0.1 Hz. The voltage of half-inactivation was determined for each cell using a 5 sec prepulse to membrane potentials between −120 mV and −20 mV followed immediately by a voltage step to a fully activating membrane voltage (e.g., 0 mV). Following steady state block with exemplary compounds (e.g., as described herein), the degree of inhibition was measured using the average of three consecutive voltage steps. Percent steady-state inhibition of INa was calculated as: [(INa_compound)/(INa_control)]*100, where INa_compound and INa_control represent INa recorded in the presence or absence of compound, respectively.
(§4) In this table, “A” indicates inhibition between less than 0% to 50% and “B” indicates inhibition of greater than 50% and N/A indicates the compound was not tested.

[6] = biological target: T6, hNaV1.5-WT (Homo sapiens, UniProt Q14524); assay: as above; assay type: cell-based; conditions: HEK293; percent inhibition measured at 1 μM; step to 0 mV from half-inactivation holding potential
T6 construct: expressed in transfected cells; host or cells: HEK-293
Procedure: as §1, §3, §4

[7] = biological target: T7, hNaV1.8-WT (Homo sapiens, UniProt Q9Y5Y9); assay: as above; assay type: cell-based; conditions: HEK293; percent inhibition measured at 1 μM; step to 0 mV from half-inactivation holding potential
T7 construct: expressed in transfected cells; host or cells: HEK-293
Procedure: as §1, §3, §4

[8] = biological target: T8, hNaV1.7-WT (Homo sapiens, UniProt Q15858); assay: as above; assay type: cell-based; conditions: HEK293; percent inhibition measured at 1 μM; step to 0 mV from half-inactivation holding potential
T8 construct: expressed in transfected cells; host or cells: HEK-293
T8 sequence (Q15858 whole entry): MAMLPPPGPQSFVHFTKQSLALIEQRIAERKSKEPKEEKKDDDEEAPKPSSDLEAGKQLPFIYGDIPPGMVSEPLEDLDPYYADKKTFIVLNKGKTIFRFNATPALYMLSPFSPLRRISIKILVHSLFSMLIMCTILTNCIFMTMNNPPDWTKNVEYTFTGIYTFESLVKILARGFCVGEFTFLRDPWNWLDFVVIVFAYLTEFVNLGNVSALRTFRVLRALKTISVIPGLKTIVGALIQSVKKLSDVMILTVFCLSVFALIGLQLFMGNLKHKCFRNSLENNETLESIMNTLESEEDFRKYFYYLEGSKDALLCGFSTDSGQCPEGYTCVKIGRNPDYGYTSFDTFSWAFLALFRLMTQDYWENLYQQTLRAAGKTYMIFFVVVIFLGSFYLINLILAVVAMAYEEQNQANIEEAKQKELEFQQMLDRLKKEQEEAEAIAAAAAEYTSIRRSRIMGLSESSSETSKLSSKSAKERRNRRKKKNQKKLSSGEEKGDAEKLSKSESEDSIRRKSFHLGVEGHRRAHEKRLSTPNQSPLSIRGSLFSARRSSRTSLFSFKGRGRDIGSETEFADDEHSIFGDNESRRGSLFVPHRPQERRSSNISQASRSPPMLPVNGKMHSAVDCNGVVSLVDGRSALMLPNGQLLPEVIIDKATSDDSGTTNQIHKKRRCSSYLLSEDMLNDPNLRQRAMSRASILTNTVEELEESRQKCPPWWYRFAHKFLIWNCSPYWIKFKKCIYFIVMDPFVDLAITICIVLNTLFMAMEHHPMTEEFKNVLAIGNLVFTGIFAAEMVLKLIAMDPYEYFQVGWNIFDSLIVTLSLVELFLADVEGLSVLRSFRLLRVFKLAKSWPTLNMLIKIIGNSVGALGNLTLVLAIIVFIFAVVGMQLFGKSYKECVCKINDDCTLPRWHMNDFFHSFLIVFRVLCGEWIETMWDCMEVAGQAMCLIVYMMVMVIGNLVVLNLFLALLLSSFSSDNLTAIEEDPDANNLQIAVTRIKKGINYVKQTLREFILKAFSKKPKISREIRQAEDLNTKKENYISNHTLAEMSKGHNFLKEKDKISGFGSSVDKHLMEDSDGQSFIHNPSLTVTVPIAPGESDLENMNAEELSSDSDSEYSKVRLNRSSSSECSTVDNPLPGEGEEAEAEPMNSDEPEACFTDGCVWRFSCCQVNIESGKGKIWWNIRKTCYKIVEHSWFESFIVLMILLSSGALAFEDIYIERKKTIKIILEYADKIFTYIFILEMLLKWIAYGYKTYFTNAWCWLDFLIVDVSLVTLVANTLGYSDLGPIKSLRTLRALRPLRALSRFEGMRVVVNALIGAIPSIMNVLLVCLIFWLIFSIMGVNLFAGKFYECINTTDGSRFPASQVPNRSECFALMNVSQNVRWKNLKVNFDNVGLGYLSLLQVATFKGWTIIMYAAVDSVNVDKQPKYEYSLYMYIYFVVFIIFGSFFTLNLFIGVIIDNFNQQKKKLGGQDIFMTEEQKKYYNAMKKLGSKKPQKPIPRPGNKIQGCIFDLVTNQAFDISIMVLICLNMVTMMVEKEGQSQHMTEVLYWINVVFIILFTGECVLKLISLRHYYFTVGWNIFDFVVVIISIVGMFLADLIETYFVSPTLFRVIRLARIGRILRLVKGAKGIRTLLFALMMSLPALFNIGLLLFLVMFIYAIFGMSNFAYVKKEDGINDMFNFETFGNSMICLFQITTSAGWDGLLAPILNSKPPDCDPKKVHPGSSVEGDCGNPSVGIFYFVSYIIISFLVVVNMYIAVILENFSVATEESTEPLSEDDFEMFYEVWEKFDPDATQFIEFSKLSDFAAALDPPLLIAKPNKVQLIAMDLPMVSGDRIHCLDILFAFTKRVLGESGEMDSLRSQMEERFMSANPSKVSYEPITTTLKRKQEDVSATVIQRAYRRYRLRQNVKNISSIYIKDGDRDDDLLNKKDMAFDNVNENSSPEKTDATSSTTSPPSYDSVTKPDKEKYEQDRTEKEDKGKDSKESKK
Procedure: as §1, §3, §4

[9] = biological target: T9, hNaV1.1-WT (Homo sapiens, UniProt P35498); assay: as above; assay type: cell-based; conditions: percent inhibition measured at 1 μM; step to 0 mV from half-inactivation holding potential
T9 construct: expressed in transfected cells; host or cells: HEK-293
Procedure: as §1, §3, §4

[10] = biological target: T10, hNaV1.6-WT (Homo sapiens, UniProt Q9UQD0); assay: as above; assay type: cell-based; conditions: HEK293; percent inhibition measured at 1 μM; step to 0 mV from half-inactivation holding potential
T10 construct: expressed in transfected cells; host or cells: HEK-293
T10 sequence (Q9UQD0 whole entry): as the sequence (Q9UQD0 whole entry) above
Procedure: as §1, §3, §4

[11] = biological target: T11, human NaV 1.2 (h NaV 1.2) (Homo sapiens, UniProt Q99250); assay: Modulation of late sodium current (INaL), PatchXpress electrophysiology, HEK-293 cells expressing hNaV1.2; assay type: cell-based; conditions: HEK293, read-out: NaV 1.2 Assay Data: percent inhibition of INaL at hNaV1.2
T11 construct: expressed in transfected cells; host or cells: HEK-293

[12] = tested on: Male CD-1 mice; assay: Maximal Electroshock induced Seizure (MES) assay in mice; assay type: in vivo, mouse; conditions: 35% HPCD, pre-treatment 30 min, recorded up to 60 seconds post stimulus
Procedure: Male CD-1 mice, weighing 25-35 g were assessed in the Maximal Electroshock induced Seizure (MES) assay. Briefly, mice were dosed with compound (n=12/group) according to the dosing parameters in Table 20 and the latency to induce tonic hind limb extension following transauricular electrical stimulation (50 Hz, 50 mA, 0.8 sec duration, pulse width of 10 ins) was recorded up to 60 seconds post stimulus.

inhibition at 1 µM [1]: > 70%
inhibition at 1 µM [2]: > 50%
inhibition at 1 µM [3]: < 50%
inhibition at 1 µM [4]: > 50%
inhibition at 1 µM [7]: > 50%
inhibition at 1 µM [8]: > 50%
hNav1.1 Peak INa [9]: B (inhibition of greater than 50%)
inhibition at 1 µM [10]: > 50%
inhibition at 1 µM [11]: > 70%
Structure (SMILES): CCOC(F)(F)c1nnc2cnc(-c3cnc(OCC(F)(F)F)c(F)c3)cn12 [Compound 10]
hNav1.2 Peak INa [5]: A (inhibition between less than 0% to 50%)
inhibition at 1 µM [6]: > 50%
Mean latency to tonic extension ([12]; 1 mg/kg PO): 7.9 s
Mean latency to tonic extension ([12]; 3 mg/kg PO): 36.3 s
Mean latency to tonic extension ([12]; 10 mg/kg PO): 55.2 s
